Where no end group is shown, it is not given here.
Tested on: Sprague-Dawley rats
Experiment: Delayed alternation test (T-maze) for cognitive function improvement
Format: in vivo, rat
Settings: oral, 100 mg/ml solution; for effect of improving cognitive function and memory in the early stage of administration: delay of 5 seconds, early stage of 9-day training; for effect of improving cognitive function and memory (T-maze performance): delay of 5 seconds between trials, 9 days training
Procedure: Experimental animals were white male Sprague-Dawley rats (140 to 180 g, Daehan Biolink Co., Ltd.). These rats were housed in cages (4 rats per cage) in a constant environment (temperature: 25±1° C., and relative humidity: 60±10%) for one week and allowed to access water ad libitum. At this time, the feed was fed in a limited manner so that 80% of the body weight was kept. In this experiment, a total of 50 rats were used. The rats were adapted to the maze for 5 minutes a day for 3 days before training.
In the first trial, the animals were adapted to the start arm. The first trial is a “forced-choice trial”, in which one arm was blocked with the door and when the animal entered the other arm, the rear was blocked with the door. The animal was considered as entering the arm when all four paws passed through the entrance. The animal was allowed to eat feed in the corresponding arm for 60 seconds. The next trials were “free-choice trials”, in which the animal was free to choose the direction of the arm (left or right) starting from the start arm. The animal was made to be able to eat food as a reward only when it entered the arm that entered in the previous trial and the opposite arm.
The trials were performed with delays of 5 seconds and 20 seconds, and the cut-off time of each trial was set to 60 seconds. The number of times the animal entered the forced-choice arm and the time taken to enter the arm were measured. The same procedure was performed for 9 days with 10 trials per day, followed by assessment.
The silk peptides NF1, NF2 and TF1 to TF9 were prepared into solutions, each containing 100 mg/ml of each peptide, and were administered orally. All the samples were dissolved in distilled water and administered orally.

| Substance | effect of improving cognitive function and memory in the early stage of administration | effect of improving cognitive function and memory (T-maze performance) |
| --- | --- | --- |
| Ala-Gly-Gly-Ala (AGGA; printed: Ala-Gly-Gly-Ala) [Peptide P4-1] | significantly increased effect of improving cognitive function and memory in the early stage of administration |  |
| Ile-Gly-Tyr-Val (IGYV; printed: Ile-Gly-Tyr-Val) [Peptide P2-1] |  | relatively low |
| YGGYGI [Peptide P5-1] | excellent activity of improving cognitive function and memory in the early stage | clearly better effect of improving cognitive function and memory than P4-2 |
| Ile-Gly-Val-Ala-Tyr (IGVAY; printed: Ile-Gly-Val-Ala-Tyr) [Peptide F2] | high activity of improving cognitive function and memory in an early stage, compared to P2-2 | high effect of improving cognitive function and memory, compared to P2-2 |
| Ile-Gly-Val-Ala (IGVA; printed: Ile-Gly-Val-Ala) [Peptide P2-2] |  | relatively better |
| Tyr-Gly-Gly-Tyr (YGGY; printed: Tyr-Gly-Gly-Tyr) [Peptide P4-2] |  | increased effect of improving cognitive function and memory |
| Tyr-Gly-Ile-Ala (YGIA; printed: Tyr-Gly-Ile-Ala) [Peptide P1-6] | significantly increased effect of improving cognitive function and memory in the early stage of administration | increased effect of improving cognitive function and memory |
| Tyr-Gly-Ala-Ala (YGAA; printed: Tyr-Gly-Ala-Ala) [Peptide P1-3] |  | increased effect of improving cognitive function and memory |
| Ile-Gly-Ala-Tyr (IGAY; printed: Ile-Gly-Ala-Tyr) [Peptide P2-3] |  | relatively low |
| Tyr-Gly-Val-Ile (YGVI; printed: Tyr-Gly-Val-Ile) [Peptide P1-5] |  | increased effect of improving cognitive function and memory |
| Ile-Gly-Gln-Gly (IGQG; printed: Ile-Gly-Gln-Gly) [Peptide P2-4] |  | relatively low |
| Ile-Gly-Val-Ala-Thr (IGVAT; printed: Ile-Gly-Val-Ala-Thr) [Peptide F1] | high activity of improving cognitive function and memory in an early stage, compared to P2-2 | high effect of improving cognitive function and memory, compared to P2-2 |
| Ile-Gly-Val-Ala-Gly (IGVAG; printed: Ile-Gly-Val-Ala-Gly) [Peptide F3] | high activity of improving cognitive function and memory in an early stage, compared to P2-2 | high effect of improving cognitive function and memory, compared to P2-2 |
| Tyr-Gly-Gly-Ala (YGGA; printed: Tyr-Gly-Gly-Ala) [Peptide P1-2] |  | increased effect of improving cognitive function and memory |
